According to US7767240B2, “Microbiological control in poultry processing” (priority 2001, dated 2010):

Assays:
Escherichia coli = assay: AOAC test method, kill of bacterial culture; type: cell-based; conditions: for concentration required to achieve complete kill within 30 seconds: Escherichia coli, AOAC test
Method: (§1) One such series of tests involved determinations of microbiological control against Escherichia coli bacteria. Another set of tests involved determinations of microbiological control against Enterococcus faecium. In each case, comparative tests were carried out in the same manner utilizing the AOAC test method. Such test involves exposing a culture of the microorganism to various concentrations of a test solution prepared from an aqueous stock solution of the compound under test. At various time intervals the halogen in the test suspensions is chemically neutralized, and the amount of viable bacteria remaining is enumerated by plating onto nutrient agar and incubating for 2 days at 37° C. Results are expressed at the log10 colony forming units (CFU). The concentration of the compound required to achieve complete kill (i.e., no viable bacteria remain) within 30 seconds is determined in the test.
Table 43 summarizes the data obtained in the tests using respectively, 1,3-dibromo-5,5-dimethylhydantoin (DBDMH) and N,N′-bromochloro-5,5-dimethylhydantoin (BCDMH) and in which the microorganism in each case was Escherichia coli. It can be seen that 1,3-dibromo-5,5-dimethylhydantoin passed the test at one milligram of bromine, as […] per liter of water, as evidenced by the complete kill within 30 seconds, whereas 1,3-bromochloro-5,5-dimethylhydantoin required two milligrams of bromine, as Br2, per liter of water to achieve complete kill within 30 seconds.

[1] = type: physicochemical
From the text: Another mode of applying the microbiocidally-effective amounts of solid-state microbiocides of these embodiments of the invention is to cause the microbiocide to be leached into water streams passing through conduits and into tanks or other washing devices utilized in the processing of the poultry. For example, suitable solid forms of the microbiocide, preferably a bromine-based microbiocide, such as tablets, briquettes, pellets, nuggets, or granules are placed in suitable feeding devices through which a stream of water is passed. The passage of the water through the bed of the microbiocide results in the stream continuously dissolving small quantities of the microbiocide to thereby provide microbiocidally effective amounts of the microbiocide in the water. 1,3-Dibromo-5,5-dimethylhydantoin is especially preferred for use in this mode of application because of its relatively low solubility and thus relatively slow rate of dissolution in water at ambient room temperatures. This translates into relatively long periods of use before need of refilling the device holding the solids.

Enterococcus faecium = assay: AOAC test method, kill of bacterial culture; type: cell-based; conditions: for concentration required to achieve complete kill within 30 seconds: Enterococcus faecium, AOAC test
Method: as §1
Table 44 summarizes the data obtained in the tests using respectively 1,3-dibromo-5,5-dimethylhydantoin (DBDMH) and N,N-bromochloro-5,5-dimethylhydantoin (BCDMH) and in which the microorganism in each case was Enterococcus faecium.

Salmonella = Salmonella positive samples, simulated USDA HACCP detection (Example 7); type: cell-based, Salmonella enteritidis; conditions: 20 ppm (Cl2 equivalent) during chilling; for Salmonella positive samples (Number 51): birds inoculated with Salmonella prior to chilling, control 21/51; for Salmonella positive samples (%): control 41.18%
From the text: After normal processing of 56-day-old birds, carcasses were immersed first in a warm bath containing 10^4 per mL Escherichia coli, 10^4 per mL Salmonella enteritidis, 10^4 per mL Pseudomonas aeruginosa, 10^4 per mL Campylobacter jejuni, and 10^4 per mL spoilage bacteria each from two strains (Listeria monocytogenes and Shigella sonnei). Carcasses were then immersed in a chill tank “soup”, containing normal organic fluids (blood, fat, skin, and meat particles) and containing various disinfectants (termed test materials). These whole bird bacteria count tests were conducted at pH 8. The effect of the test compounds on skin pigmentation was determined by use of Minolta Color Meter L value or Lightness, a value or redness and b value or yellowness. Post-chilling skin bacteria of various strains were determined over a 20-day period. Spoilage, using sensory odors as a model, determined time required to create a putrid/ammonia-like odor. After salmonella infection in chill tanks, USDA HACCP salmonella detection was simulated and reported.
DBDMH and BCDMH stock solutions and diluted test solutions (20 ppm Cl2 equivalent), a bacteria stock solution, and a “chicken soup” were prepared as in Example 3 except that the Stabrom® 909 biocide concentrate was diluted by adding 30 mL per liter of water just prior to application. This diluted solution was sprayed on the birds, both inside and outside, in quantities of 200 mL per bird. In addition, the bacterial broth treatments, the whole bird wash sampling procedure, and the methodologies used for quantitative or qualitative determinations for bacterial organisms were conducted as in Example 3.
The details concerning the trial events used as well as the detailed experimental design used in these tests were the same as described in Example 6. The only exceptions were: • a) In the case of the birds of Test Group 5 (note Table 38), while the carcass was still warm, the 10 birds were each sprayed both internally and externally, using a misting hand-held nozzle, with 200 mL of the 3% solution of Stabrom 909 biocide (SSBC). […] The spray was allowed to stay on the warm carcasses for 60 seconds. • b) The treatment on sampling day 0 of 102 total of the remaining 110 carcasses from each treatment involving “whole bird” washing and Salmonella detection, all as described in Example 6, was applied only to the birds of Test Groups 1-4 (note Table 38).

[2] = 0.5 mg/L as Br2, contact time 30 sec
[3] = 0.5 mg/L as Br2, contact time 1 min
[4] = 0.5 mg/L as Br2, contact time 2 min
[5] = 0.5 mg/L as Br2, contact time 3 min
[6] = 0.5 mg/L as Br2, contact time 4 min
[7] = 0.5 mg/L as Br2, contact time 5 min
[8] = 0.5 mg/L as Br2, contact time 10 min
[9] = 1.0 mg/L as Br2, contact time 30 sec
[10] = 1.0 mg/L as Br2, contact time 1 min
[11] = 1.0 mg/L as Br2, contact time 2 min
[12] = 1.0 mg/L as Br2, contact time 3 min
[13] = 1.0 mg/L as Br2, contact time 4 min
[14] = 1.0 mg/L as Br2, contact time 5 min
[15] = 1.0 mg/L as Br2, contact time 10 min
[16] = 2.0 mg/L as Br2, contact time 30 sec
[17] = 2.0 mg/L as Br2, contact time 1 min
[18] = 2.0 mg/L as Br2, contact time 2 min
[19] = 2.0 mg/L as Br2, contact time 3 min
[20] = 2.0 mg/L as Br2, contact time 4 min
[21] = 2.0 mg/L as Br2, contact time 5 min
[22] = 2.0 mg/L as Br2, contact time 10 min

CC1(C)C(=O)N(Br)C(=O)N1Br [DBDMH, 1,3-dibromo-5,5-dimethylhydantoin]
2.36 Log10 CFU: Log10 CFU Recovered (Enterococcus faecium; [3])
one: concentration required to achieve complete kill within 30 seconds (Escherichia coli) | concentration required to achieve complete kill within 30 seconds (Enterococcus faecium)
4.32 Log10 CFU: Log10 CFU Recovered (Enterococcus faecium; [2])
>4.48 Log10 CFU: Log10 CFU Recovered (Escherichia coli; [2])
1.96%: Salmonella positive samples (%) (Salmonella)
405 ppm expressed as Cl2: solubility in water [1]
1.70 Log10 CFU: Log10 CFU Recovered (Escherichia coli; [3])
0 Log10 CFU: Log10 CFU Recovered (Escherichia coli; [4]) | Log10 CFU Recovered (Escherichia coli; [5]) | Log10 CFU Recovered (Escherichia coli; [6]) | Log10 CFU Recovered (Escherichia coli; [7]) | Log10 CFU Recovered (Escherichia coli; [8]) | Log10 CFU Recovered (Escherichia coli; [9]) | Log10 CFU Recovered (Escherichia coli; [10]) | Log10 CFU Recovered (Escherichia coli; [11]) | Log10 CFU Recovered (Escherichia coli; [12]) | Log10 CFU Recovered (Escherichia coli; [13]) | Log10 CFU Recovered (Escherichia coli; [14]) | Log10 CFU Recovered (Escherichia coli; [15]) | Log10 CFU Recovered (Escherichia coli; [16]) | Log10 CFU Recovered (Escherichia coli; [17]) | Log10 CFU Recovered (Escherichia coli; [18]) | Log10 CFU Recovered (Escherichia coli; [19]) | Log10 CFU Recovered (Escherichia coli; [20]) | Log10 CFU Recovered (Escherichia coli; [21]) | Log10 CFU Recovered (Escherichia coli; [22])
1/51: Salmonella positive samples (Number 51) (Salmonella)
0.00 Log10 CFU: Log10 CFU Recovered (Enterococcus faecium; [4]) | Log10 CFU Recovered (Enterococcus faecium; [5]) | Log10 CFU Recovered (Enterococcus faecium; [6]) | Log10 CFU Recovered (Enterococcus faecium; [7]) | Log10 CFU Recovered (Enterococcus faecium; [8]) | Log10 CFU Recovered (Enterococcus faecium; [9]) | Log10 CFU Recovered (Enterococcus faecium; [10]) | Log10 CFU Recovered (Enterococcus faecium; [11]) | Log10 CFU Recovered (Enterococcus faecium; [12]) | Log10 CFU Recovered (Enterococcus faecium; [13]) | Log10 CFU Recovered (Enterococcus faecium; [14]) | Log10 CFU Recovered (Enterococcus faecium; [15]) | Log10 CFU Recovered (Enterococcus faecium; [16]) | Log10 CFU Recovered (Enterococcus faecium; [17]) | Log10 CFU Recovered (Enterococcus faecium; [18]) | Log10 CFU Recovered (Enterococcus faecium; [19]) | Log10 CFU Recovered (Enterococcus faecium; [20]) | Log10 CFU Recovered (Enterococcus faecium; [21]) | Log10 CFU Recovered (Enterococcus faecium; [22])

CC1(C)C(=O)N(Cl)C(=O)N1Br [BCDMH, N,N′-bromochloro-5,5-dimethylhydantoin]
3.53 Log10 CFU: Log10 CFU Recovered (Enterococcus faecium; [3])
6/51: Salmonella positive samples (Number 51) (Salmonella)
890 ppm expressed as Cl2: solubility in water [1]
0.00 Log10 CFU: Log10 CFU Recovered (Enterococcus faecium; [5]) | Log10 CFU Recovered (Enterococcus faecium; [6]) | Log10 CFU Recovered (Enterococcus faecium; [7]) | Log10 CFU Recovered (Enterococcus faecium; [8]) | Log10 CFU Recovered (Enterococcus faecium; [11]) | Log10 CFU Recovered (Enterococcus faecium; [12]) | Log10 CFU Recovered (Enterococcus faecium; [13]) | Log10 CFU Recovered (Enterococcus faecium; [14]) | Log10 CFU Recovered (Enterococcus faecium; [15]) | Log10 CFU Recovered (Enterococcus faecium; [16]) | Log10 CFU Recovered (Enterococcus faecium; [17]) | Log10 CFU Recovered (Enterococcus faecium; [18]) | Log10 CFU Recovered (Enterococcus faecium; [19]) | Log10 CFU Recovered (Enterococcus faecium; [20]) | Log10 CFU Recovered (Enterococcus faecium; [21]) | Log10 CFU Recovered (Enterococcus faecium; [22])
11.76%: Salmonella positive samples (%) (Salmonella)
2.63 Log10 CFU: Log10 CFU Recovered (Enterococcus faecium; [4])
two: concentration required to achieve complete kill within 30 seconds (Escherichia coli) | concentration required to achieve complete kill within 30 seconds (Enterococcus faecium)
>4.48 Log10 CFU: Log10 CFU Recovered (Escherichia coli; [2]) | Log10 CFU Recovered (Escherichia coli; [9]) | Log10 CFU Recovered (Enterococcus faecium; [2]) | Log10 CFU Recovered (Enterococcus faecium; [9])
1.65 Log10 CFU: Log10 CFU Recovered (Escherichia coli; [4])
0 Log10 CFU: Log10 CFU Recovered (Escherichia coli; [5]) | Log10 CFU Recovered (Escherichia coli; [6]) | Log10 CFU Recovered (Escherichia coli; [7]) | Log10 CFU Recovered (Escherichia coli; [8]) | Log10 CFU Recovered (Escherichia coli; [11]) | Log10 CFU Recovered (Escherichia coli; [12]) | Log10 CFU Recovered (Escherichia coli; [13]) | Log10 CFU Recovered (Escherichia coli; [14]) | Log10 CFU Recovered (Escherichia coli; [15]) | Log10 CFU Recovered (Escherichia coli; [16]) | Log10 CFU Recovered (Escherichia coli; [17]) | Log10 CFU Recovered (Escherichia coli; [18]) | Log10 CFU Recovered (Escherichia coli; [19]) | Log10 CFU Recovered (Escherichia coli; [20]) | Log10 CFU Recovered (Escherichia coli; [21]) | Log10 CFU Recovered (Escherichia coli; [22])
4.46 Log10 CFU: Log10 CFU Recovered (Escherichia coli; [3])
0.7 Log10 CFU: Log10 CFU Recovered (Escherichia coli; [10])
2.38 Log10 CFU: Log10 CFU Recovered (Enterococcus faecium; [10])
